Consider 28 compounds from patent US20060281763A1, “Carboxamide inhibitors of TGFbeta” (priority 2005, published 2006).

Structures are written as SMILES.

For the first test, the target named is T1, TGFβ R1 (Homo sapiens, UniProt P36897).
T1 sequence (P36897 34-503): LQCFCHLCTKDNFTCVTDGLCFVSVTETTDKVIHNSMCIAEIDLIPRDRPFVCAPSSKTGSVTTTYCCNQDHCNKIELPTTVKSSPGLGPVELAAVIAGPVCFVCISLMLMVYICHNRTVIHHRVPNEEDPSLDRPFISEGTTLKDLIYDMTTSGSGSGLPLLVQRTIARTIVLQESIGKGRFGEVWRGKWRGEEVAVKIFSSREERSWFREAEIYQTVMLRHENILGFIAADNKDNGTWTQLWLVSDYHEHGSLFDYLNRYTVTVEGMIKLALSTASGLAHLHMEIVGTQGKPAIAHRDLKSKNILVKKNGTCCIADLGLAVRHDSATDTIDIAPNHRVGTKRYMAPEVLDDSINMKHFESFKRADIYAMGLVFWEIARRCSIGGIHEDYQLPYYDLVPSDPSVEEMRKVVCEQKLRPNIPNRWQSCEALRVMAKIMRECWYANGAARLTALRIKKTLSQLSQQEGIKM
Briefly: TGFβ R1 autophosphorylation protocol (33P-ATP, phosphocellulose filter plate). It is filed as biochemical. The settings on record: 10 uM ATP, 170 nM TGFβ R1, 20 minutes at room temperature, read-out: IC50 for Kinase Inhibition. The procedure, abridged:
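Radiometric autophosphorylation: 170 nM enzyme with compound (≤1% DMSO), 10 uM ATP plus γ-33P-ATP, […] in 20 mM MOPS pH 7, 20 min at room temperature. Reaction stopped on phosphocellulose filter, washed with H3PO4 and ethanol, counted by scintillation.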
`COc1cnc(-c2cc(Cl)ccc2F)nc1Nc1ccncc1C(=O)NC1CCN(C(=O)OC(C)(C)C)CC1` [Compound 8, 4-({4-[2-(5-Chloro-2-fluoro-phenyl)-5-methoxy-pyrimidin-4-ylamino]-pyridine-3-carbonyl}-amino)-piperidine-1-carboxylic acid tert-butyl ester]: the IC50 turned out to be 60 nM.
Consider `COc1cnc(-c2cc(Cl)ccc2F)nc1Nc1ccncc1C(=O)NCCNCCOC1O[C@H](COC(C)=O)[C@@H](OC(C)=O)[C@H](OC(C)=O)[C@H]1OC(C)=O` (stereo partly shown) [Compound 142, Acetic acid 3,4,5-triacetoxy-6-(2-[2-({4-[2-(5-chloro-2-fluoro-phenyl)-5-methoxy-pyrimidin-4-ylamino]-pyridine-3-carbonyl]-amino)-ethylamino]-ethoxy}tetrahydro-pyran-2-ylmethyl ester], for which the IC50 was found to be 10 nM.
For `CC(C)c1cnc(-c2cc(Cl)ccc2F)nc1Nc1ccncc1C(=O)NCC(C)(C)O` [Compound 52, 4-[2-(5-Chloro-2-fluoro-phenyl)-5-isopropyl-pyrimidin-4-ylamino]-N-(2-hydroxy-2-methyl-propyl)-nicotinamide], the IC50 was 90 nM.
As to `CCOP(=O)(OCC)O[C@@H](C)CNC(=O)c1cnccc1Nc1nc(-c2cc(Cl)ccc2F)ncc1OC` [Compound 121, Phosphoric acid 2-({4-[2-(5-chloro-2-fluoro-phenyl)-5-methoxy-pyrimidin-4-ylamino]-pyridine-3-carbonyl}-amino)-1-methyl-ethyl ester diethyl ester], the IC50 worked out at 5770 nM.
On the same count and under the same terms, then `COc1cnc(-c2cc(Cl)ccc2F)nc1Nc1ccncc1C(=O)NCCCN1CCCCC1C` (stereo not shown) [Compound 12, 4-[2-(5-Chloro-2-fluoro-phenyl)-5-methoxy-pyrimidin-4-ylamino]-N-[3-(2-methyl-piperidin-1-yl)-propyl]-nicotinamide], with 60 nM.
The same measure, in the same setting: then `COc1cnc(-c2cc(Cl)ccc2F)nc1Nc1ccncc1C(=O)N[C@@H]1CCOC1=O` [Compound 62, 4-[2-(5-Chloro-2-fluoro-phenyl)-5-methoxy-pyrimidin-4-ylamino]-N-(2-oxo-tetrahydro-furan-3-yl)-nicotinamide], with 360 nM; and `COc1cnc(-c2cc(Cl)ccc2F)nc1Nc1ccncc1C(=O)NOCC1CC1` [Compound 129, 4-[2-(5-Chloro-2-fluoro-phenyl)-5-methoxy-pyrimidin-4-ylamino]-N-cyclopropylmethoxy-nicotinamide], with 59 nM; and `O=C(NCCN1CCCC1)c1cnccc1Nc1nc(-c2cc(Cl)ccc2F)ncc1N1CCCC1` [Compound 26, 4-[2-(5-Chloro-2-fluoro-phenyl)-5-pyrrolidin-1-yl-pyrimidin-4-ylamino]-N-(2-pyrrolidin-1-yl-ethyl)-nicotinamide], with 200 nM.
Still for that read-out and setting: then `COc1cnc(-c2cc(Cl)ccc2F)nc1Nc1ccncc1C(=O)NCCNCCOC1O[C@H](CO)[C@H](O)[C@H](O)[C@H]1O` (stereo partly shown) [Compound 158], with 5 nM; and `COc1cnc(-c2cc(Cl)ccc2F)nc1Nc1ccncc1C(=O)NCCCN/C(=N/C#N)N1CCC1` [Compound 44], with 130 nM; and `COc1cnc(-c2cc(Cl)ccc2F)nc1Nc1ccncc1C(=O)NCCCNC(=O)OC(C)(C)C` [Compound 33, [3-({4-[2-(5-Chloro-2-fluoro-phenyl)-5-methoxy-pyrmidin-4-ylamino]-pyridine-3-carbonyl}-amino)-propyl]-carbamic acid tert-butyl ester], with 1130 nM.
As for `COC[C@@H]1OC(CCNCCCNC(=O)c2cnccc2Nc2nc(-c3cc(Cl)ccc3F)ncc2OC)[C@@H](OC)[C@H](OC)[C@H]1OC` (stereo partly shown) [Compound 125, 4-[2-(5-Chloro-2-fluoro-phenyl)-5-methoxy-pyrimidin-4-ylamino]-N-{3-[2-(3,4,5-trimethoxy-6-methoxymethyl-tetrahydro-pyran-2-yl)-ethylamino]-propyl}-nicotinamide], the 50% inhibitory concentration (IC50) was 32 nM.
As for `COc1cnc(-c2cc(Cl)ccc2F)nc1Nc1ccncc1C(=O)NCCNCCC1O[C@H](CO)[C@@H](O)[C@H](O)[C@H]1O` (stereo partly shown) [Compound 136, 4-[2-(5-Chloro-2-fluoro-phenyl)-5-methoxy-pyrimidin-4-ylamino]-N-{2-[2-(3,4,5-trihydroxy-6-hydroxymethyl-tetrahydro-pyran-2-yl)-ethylamino]-ethyl}-nicotinamide], the IC50 turned out to be 7 nM.
On the same count and under the same terms, to `COc1cnc(-c2cc(Cl)ccc2F)nc1Nc1ccncc1C(=O)NCCNCCO` [Compound 6, 4-[2-(5-Chloro-2-fluoro-phenyl)-5-methoxy-pyrimidin-4-ylamino]-N-[2-(2-hydroxy-ethylamino)-ethyl]-nicotinamide] belongs 10 nM.
Still for that read-out and setting: to `COc1cnc(-c2cc(Cl)ccc2F)nc1Nc1ccncc1C(=O)NCCCN/C(=N/C#N)NC(C)C` [Compound 42] belongs 120 nM; to `COc1cnc(-c2cc(Cl)ccc2F)nc1Nc1ccncc1C(=O)NCCNCCOC1O[C@H](CO)[C@@H](O)[C@H](O)[C@H]1O` (stereo partly shown) [Compound 144, 4-[2-(5-chloro-2-fluoro-phenyl)-5-methoxy-pyrimidin-4-ylamino]-N-{2-[2-(3,4,5-trihydroxy-6-hydroxymethyl-tetrahydro-pyran-2-yloxy)-ethylamino]-ethyl)-nicotinamide], 10 nM.

Still in this test, the particulars now being: 10 uM ATP, 170 nM TGFβ R1, room temperature 20 minutes, read-out: IC50 for Kinase Inhibition.
With `COC(=O)C1CCCN1CCCNC(=O)c1cnccc1Nc1nc(-c2cc(Cl)ccc2F)ncc1OC` (stereo not shown) [Compound 175, 1-[3-({4-[2-(5-Chloro-2-fluoro-phenyl)-5-methoxy-pyrimidin-4-ylamino]-pyridine-3-carbonyl}-amino)-propyl]-pyrrolidine-2-carboxylic acid methyl ester], the IC50 is 31 nM.
Same read-out and setting: then `CCOP(=O)(OCC)OC(C)(C)CNC(=O)c1cnccc1Nc1nc(-c2cc(Cl)ccc2F)ncc1C(C)C` [Compound 192], with 122 nM.
Still for that read-out and setting: then `COc1cnc(-c2cc(Cl)ccc2F)nc1Nc1ccncc1C(=O)NCCNCC[C@H]1C[C@H](O)[C@@H](CO)O1` [Compound 173, 4-[2-(5-Chloro-2-fluoro-phenyl)-5-methoxy-pyrimidin-4-ylamino]-N-{2-[2-(4-hydroxy-5-hydroxymethyl-tetrahydro-furan-2-yl)-ethylamino]-ethyl}-nicotinamide], with 6 nM; and `CC(C)c1cnc(-c2cc(Cl)ccc2F)nc1Nc1ccncc1C(=O)N[C@@H]1CCC[C@H]1O` [Compound 236, 4-[2-(5-Chloro-2-fluoro-phenyl)-5-isopropyl-pyrimidin-4-ylamino]-N-(2-hydroxy-cyclopentyl)-nicotinamide], with 123 nM; and `COc1cnc(-c2cc(Cl)ccc2F)nc1Nc1ccncc1C(=O)NO` [Compound 238, 4-[2-(5-Chloro-2-fluoro-phenyl)-5-methoxy-pyrimidine-4-ylamino]-N-hydroxy-nicotinamide], with 1080 nM.
The same measure, in the same setting: to `CC(C)c1cnc(-c2cc(Cl)ccc2F)nc1Nc1ccncc1C(=O)N1CCC[C@@H](O)C1` [Compound 217, {4-[2-(5-Chloro-2-fluoro-phenyl)-5-isopropyl-pyrimidin-4-ylamino]-pyridin-3-yl}-(3-hydroxy-piperidin-1-yl)-methanone] belongs 1210 nM; to `CC(C)c1cnc(-c2cc(Cl)ccc2F)nc1Nc1ccncc1C(=O)NCCC(=O)N1CCC[C@H]1C(=O)N(C)C` [Compound 194, 4-[2-(5-Chloro-2-fluoro-phenyl)-5-isopropyl-pyrimidin-4-ylamino]-N-[3-(2-dimethyl-carbamoyl-pyrrolidin-1-yl)-3-oxo-propyl]-nicotinamide], 41 nM.
Consider `CC(C)c1cnc(-c2cc(Cl)ccc2F)nc1Nc1ccncc1C(=O)N1CC[C@@H](F)C1` [Compound 210, {4-[2-(5-Chloro-2-fluoro-phenyl)-5-isopropyl-pyrimidin-4-ylamino]-pyridin-3-yl}-(3-fluoro-pyrrolidin-1-yl)-methanone], for which the IC50 stood at 121 nM.
On the same count and under the same terms, to `CC(C)c1cnc(-c2cc(Cl)ccc2F)nc1Nc1ccncc1C(=O)N[C@@H]1CCC[C@H]1OCc1ccccc1` (stereo in doubt) [Compound 222, N-(2-Benzyloxy-cyclopentyl)-4-[2-(5-chloro-2-fluoro-phenyl)-5-isopropyl-pyrimidin-4-ylamino]-nicotinamide] belongs 7700 nM; to `CC(C)c1cnc(-c2cc(Cl)ccc2F)nc1Nc1ccncc1C(=O)NCCCN1CCC[C@@H]1C(=O)N1CCCC1` [Compound 180], 5 nM; to `COc1cnc(-c2cc(Cl)ccc2F)nc1Nc1ccncc1C(=O)N1CC[C@H](N)C1` [Compound 211, (3-Amino-pyrrolidin-1-yl)-{4-[2-(5-chloro-2-fluoro-phenyl)-5-methoxy-pyrimidin-4-ylamino]-pyridin-3-yl)-methanone], 258 nM.
The same measure, in the same setting: then `COc1cnc(-c2cc(Cl)ccc2F)nc1Nc1ccncc1C(=O)C(=O)N(C)C` [Compound 239, 2-{4-[2-(5-Chloro-2-fluoro-phenyl)-5-methoxy-pyrimidin-4-ylamino]-pyridin-3-yl]-N,N-dimethyl-2-oxo-acetamide], with 7740 nM.

A word on the IC50: it is the concentration needed to halve the response being measured.
